Test results taken from patent US11179384B2, “Treatment of nonalcoholic fatty liver disease” (TAKEDA GMBH, priority 2016, dated 2021).

Legend:
[1] = system: male C57BL/6J mice (high caloric diet); test: Liver lipidosis / liver weight, 8 weeks treatment in diet induced obese (DIO) mice; assay type: in vivo; settings: for Liver weight (Day 56) / Grade Liver Lipidosis (mean): high caloric diet; for Liver weight (Day 56): vehicle HD 1.04, SD 0.96; for Grade Liver Lipidosis (mean): day 56, grades 1 minimal to 4 marked, vehicle HD 1.5
Description: Obesity was induced in male C57BL/6J mice (Charles River, Germany; 6 weeks of age weighing 19-20 g at start of study) by feeding a high caloric diet (60% kcal % fat; No. 2127; Provimi-Kliba, Switzerland)) for 7 weeks. Animals were single housed in Makrolon cages type II-Long with free access to food and tap water. When body weight gain exceeded 50% compared to body weight at onset of diet, the animals were randomized according to body weight (day −4) followed by treatment for 8 weeks with daily doses of Compound A (0.3, 1, 3 and 10 mg/kg/day, p.o; dissolved in 4% (w/v) aqueous methocel solution to give the required dose in a volume of 10 mL/kg body weight; n=10 in each group). After 8 weeks of treatment, animals were sacrificed. Liver was removed, weighed and fixed in 4% neutral buffered formalin for 2 days, embedded in paraffine and stained with Hematoxylin-Eosin for histological evaluation. The slides were blinded for histological reading and liver lipidosis was evaluated by light microscopy.
The degree of liver lipidosis was assessed semi-quantitatively by the following grading criteria:
Grade 1 (minimal): small round cytoplasmic vacuoles within hepatocytes
Grade 2 (mild): small to medium sized round cytoplasmic vacuoles within hepatocytes
Grade 3 (moderate): in addition: round cytoplasmic vacuoles, partly forcing the nucleus to the periphery of the cell
Grade 4 (marked): in addition: whole lobe affected
For focal changes or multifocal changes 0.5 or 0.25 were subtracted respectively. The mean severity index was calculated by dividing the sum of all gradings/group by the number of animals/group.

[2] = system: TNFα gene expression in THP-1 cells; test: Anti-inflammatory effect in THP-1 cells (LPS-induced TNFα gene expression); assay type: cell-based, human; settings: PMA-treated THP-1 cells; 0.0001-1 μM, LPS 1 ng/mL, forskolin 0.1 μM, 5 hours
Procedure: Anti-inflammatory effect of Compound A was evaluated by gene expression of TNFα induced by LPS in THP-1 cells, a human monocytic cell line.
THP-1 cells (ATCC) were suspended in RPMI medium containing 10% FBS and 50 ng/mL PMA (2.5×10^5 cells/mL) and seeded on 96 well plates. Fourty-eight hours after the seeding, the medium was exchanged to serum-free RPMI medium. Three hours after the exchange, Compound A (0, 0.0001, 0.001, 0.01, 0.1 and 1 μM), LPS (1 ng/mL), and forskolin (0.1 μM) were added to the THP-1 cells. After the 5-hours incubation, total RNA was extracted from cell lysate using RNeasy 96 Kit (QIAGEN 74182). cDNA was amplified using High-Capacity cDNA Reverse Transcription Kit (ABI 4368813), and target gene mRNA was measured using Taqman PCR. The target gene expression level was normalized by GAPDH. The experiment was repeated 5 times.

ob/ob mice = test: Insulin tolerance test (insulin sensitivity) in ob/ob mice; assay type: in vivo; settings: 29 days
Procedure: Male 5 weeks old ob/ob mice (B6.Cg-Lep^ob/J, genotype: Lep^ob/Leb^ob) and age-matched male lean mice (B6.Cg-Lep^ob/J, genotype: Lep^ob/+ * or Leb^+/+) were purchased from Charles River Laboratories, Japan Inc. All mice were fed with a normal chow (CE-2, CLEA Japan) and allowed free access to tap water. The animals were housed in a room with controlled temperature (23±1° C.), humidity (55±10%) and lightning (lights from 07:00 to 19:00). All experiments were approved by the Institutional Animal Care and Use Committee of Shonan Research Center, Takeda Pharmaceutical Company ltd (Japan).
All mice were housed individually in animal cages and used for the study at 7 weeks of age after 2 weeks of acclimation period. Blood samples were collected from the tail vein. Heparin and 2%-EDTA were used to inhibit the coagulation of the blood. Plasma was obtained by centrifugation. Plasma levels of glucose were measured using the automatic analyzer 7180 (Hitachi, Japan). Vehicle (0.5 w/v % methylcellulose, 10 ml/kg) and Compound A (3 and 10 mg/kg suspended in 0.5% methylcellulose solution) were orally administered once daily. After 28 days of administration, the insulin tolerance test (ITT) was performed. Mice were fasted for 6 h and then intraperitoneally administered with insulin (Novolin R, NovoNordisk) at a dose of 0.5 unit/5 ml/kg. Blood samples were collected from tail vein before and 15, 30, 60 and 120 min after the insulin administration. Plasma glucose (PG) level and ITT were measured using the method described above. […] AUC0-120 min of plasma glucose level was calculated using the following formula; [{(0 min PG)+(15 min PG)}×15+{(15 min PG)+(30 min PG)}×15+{(30 min PG)+(60 min PG)}×30+{(60 min PG)+[…]}×60]/2.
Data are expressed as mean and standard deviation (n=8 for ob/ob mice and n=5 for lean mice). The dose response trends of Compound A were assessed by one-tailed Williams' test or Shirley-Williams test. […] For evaluation of the effects of pioglitazone, statistical differences between vehicle and pioglitazone treated groups were analyzed with Student's t-test or Aspin-Welsh test. […]

[3] = Phase 1 clinical studies (single rising dose and multiple rising dose); assay type: in vivo, humans
Description: Compound A differs from other development candidates intended for the treatment of NAFLD/NASH in that it exerts its effects via anti-inflammatory, anti-fibrotic and anti-steatotic mode of action. […] It is furthermore believed that all of these effects observed in in vitro and animal experiments will translate in corresponding effects in the clinical setting in humans.

[4] = 3 and 10 mg/kg p.o. daily, 8 weeks

SMILES: CCOc1cc2c(cc1OC)C(c1ccc(=O)n(C)c1)=N[C@@H]1CC[C@@H](O)C[C@H]21 [Compound A, 5-((2R,4aR,10bR)-9-Ethoxy-2-hydroxy-8-methoxy-1,2,3,4,4a,10b-hexahydro-phenanthridin-6-yl)-1-methyl-1H-pyridin-2-one]
- increase in liver weight caused by high caloric diet [1, 4]: completely abolished
- liver lipidosis [1, 4]: almost abolished
- Liver weight (Day 56) ([1]; 0.3 mg/kg p.o. daily, 8 weeks): 1.08 g
- Grade Liver Lipidosis (mean) ([1]; 0.3 mg/kg p.o.): 1.4
- Liver weight (Day 56) ([1]; 1.0 mg/kg p.o. daily, 8 weeks): 1.01 g
- Grade Liver Lipidosis (mean) ([1]; 1.0 mg/kg p.o.): 0.6
- Liver weight (Day 56) ([1]; 3.0 mg/kg p.o. daily, 8 weeks): 0.96 g
- Grade Liver Lipidosis (mean) ([1]; 3.0 mg/kg p.o.): 0.3
- Liver weight (Day 56) ([1]; 10 mg/kg p.o. daily, 8 weeks): 0.95 g
- Grade Liver Lipidosis (mean) ([1]; 10.0 mg/kg p.o.): 0.2
- LPS-induced TNF-α gene expression in THP-1 cells [2]: dose-dependently suppressed
- insulin-stimulated plasma glucose (PG) reduction at 60 min (ob/ob mice; 10 mg/kg/day p.o., ITT insulin 0.5 unit/kg i.p., vs vehicle): significantly enhanced
- AUC of PG level (AUC0-120 min) (ob/ob mice; 3 and 10 mg/kg/day p.o., ITT, statistical significance at 10 mg/kg/day): dose-dependently decreased
- declines in plasma glucose level at 60 min from the zero time value (ob/ob mice; 3 and 10 mg/kg/day p.o., ITT, vs vehicle): significantly greater
- PDE4 inhibitor specific adverse events (diarrhea, nausea) ([3]; Phase 1, single dose 0.05 to 0.85 mg, multiple dose 0.05 to 0.8 mg 7 days, 0.35 and 0.8 mg up to 14 days): no PDE4 inhibitor specific adverse events
- safety and pharmacokinetic profile ([3]; Phase 1 single rising dose and multiple rising dose studies): very favorable
